# Columns and labels:
# human ACAT2 = target: T1, human ACAT2 (Homo sapiens, UniProt O75908); test: Cholesteryl [3H]-oleate formation in CHO cells stably expressing human ACAT2
# T1 sequence (O75908 1-522): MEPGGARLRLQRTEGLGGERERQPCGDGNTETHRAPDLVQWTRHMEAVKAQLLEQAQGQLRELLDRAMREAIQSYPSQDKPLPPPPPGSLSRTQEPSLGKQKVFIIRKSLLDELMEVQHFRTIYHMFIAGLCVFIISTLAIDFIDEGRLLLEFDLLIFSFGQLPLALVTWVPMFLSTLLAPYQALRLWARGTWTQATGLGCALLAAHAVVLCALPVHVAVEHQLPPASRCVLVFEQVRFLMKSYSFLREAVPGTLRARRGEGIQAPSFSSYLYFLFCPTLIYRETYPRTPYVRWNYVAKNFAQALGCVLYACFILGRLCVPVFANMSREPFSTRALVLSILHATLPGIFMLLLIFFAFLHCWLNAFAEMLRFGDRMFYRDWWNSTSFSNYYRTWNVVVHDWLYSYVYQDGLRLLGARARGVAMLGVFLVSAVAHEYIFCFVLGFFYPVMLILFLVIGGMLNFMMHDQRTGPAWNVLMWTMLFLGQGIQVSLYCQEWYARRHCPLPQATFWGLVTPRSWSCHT
# Description: (§1) Cells were placed in 10% serum for two days at 37° C. and further incubated with various concentrations of F24 as a stock solution in DMSO for 2 hours. Subsequently, a complex of [3H]-oleic acid and BSA (serving as precursor of oleyl CoA as substrate of ACAT) was fed to the cells for 2 hours. Cells were extensively washed and cellular lipids were extracted with organic solvents. Radioactivity of cholesteryl [3H]-oleate was separated by thin-layer chromatography and determined by scintillation counting.
# [1] = system: ACAT activity in the brain; test: ACAT inhibition in mouse tissues after single IV of stealth nanoparticles; type: in vivo, mice
# Description: Shown is the efficacy of F12511 vs. F24 encapsulated in nanoparticle and IV delivered to mice. Four hours after IV, various tissues were isolated to monitor ACAT inhibition measurement. Mice were perfused before brains were isolated. N=2-3 WT mice/group. Statistical analysis, 2-way ANOVA. **P<0.01; ***P<0.001.
# Nanoparticle Formation. Nanoparticles were prepared according to a general method (Gülçür, et al. (2013) Drug Deliv. Transl. Res. 3(6):562-574; Jhaveri & Torchilin (2014) Front. Pharmacol. 5:77) with modifications. Using a clean glass tube (9 mL capacity), 60 mg of DSPE-PEG2000 (Laysan Bio, Inc (mPEG-DSPE, MW 2,000)) was dissolved in 500 μL of ethanol (EtOH) for a working concentration of 60 mM. […]
# Nanoparticle Analysis. […] The content of compound was determined by extrapolation from a standard curve of a concentration gradient of the respective compound produced in the same TLC plate. The plate was stained with iodine and quantified using ImageJ. The TLC/iodine stain method detected compound, and DSPE-PEG2000/PC separately, thus allowing for encapsulation efficiency determination.
# Delivery of F24 in Mice via Nanoparticles. […] Four hours after IV delivery, different tissues were isolated and the percent of ACAT inhibition was assessed.
# human ACAT1 = target: T2, human ACAT1 (Homo sapiens, UniProt P35610); test: Cholesteryl [3H]-oleate formation in CHO cells stably expressing human ACAT1
# T2 sequence (P35610 1-550): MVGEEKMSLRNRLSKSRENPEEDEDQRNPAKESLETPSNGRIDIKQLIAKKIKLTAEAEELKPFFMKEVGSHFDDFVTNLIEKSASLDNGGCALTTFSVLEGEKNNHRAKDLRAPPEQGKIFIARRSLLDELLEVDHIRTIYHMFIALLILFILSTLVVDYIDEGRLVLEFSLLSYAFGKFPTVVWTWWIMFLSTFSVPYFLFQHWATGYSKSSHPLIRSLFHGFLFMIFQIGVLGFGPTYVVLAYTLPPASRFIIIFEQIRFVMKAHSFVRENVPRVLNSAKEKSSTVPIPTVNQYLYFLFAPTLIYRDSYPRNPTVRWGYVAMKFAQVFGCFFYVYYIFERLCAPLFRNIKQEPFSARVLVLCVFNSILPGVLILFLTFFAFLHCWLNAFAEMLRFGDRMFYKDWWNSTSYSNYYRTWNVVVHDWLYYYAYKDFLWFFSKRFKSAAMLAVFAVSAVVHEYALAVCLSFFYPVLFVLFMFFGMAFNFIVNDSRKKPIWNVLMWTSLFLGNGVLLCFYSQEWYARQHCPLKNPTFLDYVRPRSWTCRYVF
# Description: as §1
EC50 (human ACAT2) [µM],"fold more potent than F12511 in inhibiting human ACAT2 (human ACAT2; ratio of EC50 values, 11 nM vs. 55 nM)","brain permeability ([1]; mice, delivered IV via stealth nanoparticle)",EC50 (human ACAT1) [µM],"fold more potent than F12511 in inhibiting ACAT1 (human ACAT1; ratio of EC50 values, 6 nM vs. 39 nM)",SMILES,"ACAT inhibition ([1]; adult C57BL/6 mice, single IV of nanoparticle F24 at low dose 0.9 mM, four hours after IV, brain) [%]"
0.011,five-fold,brain-permeable,0.006,seven-fold,CCCCCCCCCCCCSC(C(=O)Nc1c(SC)cc(C)nc1SC)c1ccccc1 (stereo not shown) [F24],70
0.055,–,–,–,–,"CCCCCCCCCCCCS[C@H](C(=O)Nc1cc(C)c(O)c(C)c1C)c1ccccc1 [F12511, reference compound]",–
